In ChEMBL document CHEMBL3881528, “Macrocyclic Quinoxaline Compounds as HCV NS3 Protease Inhibitors” (2010):

How the values were obtained:
[1] = tested on: Liver; test: Covalent protein binding in rat liver at 25 to 75 […], po using radio-labeled compound measured at 6 hrs by scintillation counting method; assay type: ADME, organism-based; settings: in vivo
[2] = tested on: Plasma; test: Covalent protein binding in rat plasma at 25 to 75 […], po using radio-labeled compound measured at 6 hrs by scintillation counting method; assay type: ADME, organism-based
[3] = Drug level in dog liver at 5 mg/kg, po measured at 24 hrs by RP-HPLC method; assay type: ADME, organism-based, Canis lupus familiaris; settings: read-out: Drug uptake
[4] = Drug level in rat liver at 25 mg/kg, po measured at 24 hrs by RP-HPLC method; assay type: ADME, organism-based; settings: read-out: Drug uptake

| PB [1] [pmolequiv/mg] | PB [2] [pmolequiv/mg] | concentration at 24 h [3] [µM] | concentration at 24 h [4] [µM] | Compound |
| --- | --- | --- | --- | --- |
| 3 | 3 | 120 | 27.9 | C=C[C@@H]1C[C@]1(NC(=O)[C@@H]1C[C@@H]2CN1C(=O)[C@H](C(C)(C)C)NC(=O)O[C@@H]1C[C@H]1CCCCCc1nc3ccc(OC)cc3nc1O2)C(=O)[N-]S(=O)(=O)C1CC1.[K+] |
| 24 | 6 | – | – | C=C[C@@H]1C[C@]1(NC(=O)[C@@H]1C[C@@H]2CN1C(=O)[C@H](C(C)(C)C)NC(=O)O[C@@H]1CCC[C@H]1CCCCCc1nc3ccc(OC)cc3cc1O2)C(=O)NS(=O)(=O)C1CC1 |
| – | – | 3.3 | 8.5 | C=C[C@@H]1C[C@]1(NC(=O)[C@@H]1C[C@@H]2CN1C(=O)[C@H](C(C)(C)C)NC(=O)O[C@@H]1C[C@H]1CCCCCc1nc3ccc(OC)cc3cc1O2)C(=O)[N-]S(=O)(=O)C1CC1.[K+] |
| 63 | 6 | – | – | C=C[C@@H]1C[C@]1(NC(=O)[C@@H]1C[C@@H]2CN1C(=O)[C@H](C1CCCC1)NC(=O)O[C@@H]1CCC[C@H]1CCCCCc1nc3ccccc3cc1O2)C(=O)NS(=O)(=O)C1CC1 |
| 38 | 15 | – | – | C=C[C@@H]1C[C@]1(NC(=O)[C@@H]1C[C@@H]2CN1C(=O)[C@H](C1CCCC1)NC(=O)O[C@@H]1CCC[C@H]1CCCCCc1nc3ccccc3nc1O2)C(=O)NS(=O)(=O)C1CC1 |
